Laboratory results taken from ChEMBL document CHEMBL5050844 (2019).

Tests used:
[1] = Induction of anti-CD3/CD28 antibodies-stimulated human T cell activation at 0.3 uM assessed fold increase in IL-2 secretion measured by ELISA assay; type: functional, T cell line
[2] = Induction of anti-CD3/CD28 antibodies-stimulated human T cell activation at 1 uM assessed fold increase in IL-2 secretion measured by ELISA assay; type: functional, T cell line
[3] = target: E3 ubiquitin-protein ligase CBL-B (Homo sapiens, UniProt Q13191); experiment: Inhibition of N-terminal Avi-tagged human CBL-B (36 to 427 residues) incubated with 60 nM Src kinase for 1.5 hrs followed by incubation with fluorescently labeled UbcH5B-Ub for 1 hr and measured by TR-FRET assay; type: single protein
[4] = Induction of anti-CD3 antibodies-stimulated human T cell activation at 1 uM assessed fold increase in IL-2 secretion measured by ELISA assay; type: functional, T cell line; further: reference of the scale not given here
[5] = Induction of anti-CD3/CD28 antibodies-stimulated human T cell activation at 1 uM assessed fold increase in CD25 expression measured by ELISA assay; type: functional, T cell line
[6] = Induction of anti-CD3/CD28 antibodies-stimulated human T cell activation at 0.3 uM assessed fold increase in CD25 expression measured by ELISA assay; type: functional, T cell line
[7] = Induction of anti-CD3 antibodies-stimulated human T cell activation at 1 uM assessed fold increase in CD25 expression measured by ELISA assay; type: functional, T cell line; further: reference of the scale not given here

E3 ubiquitin-protein ligase CBL-B, sequence (Q13191 whole entry, the tested form may be a part): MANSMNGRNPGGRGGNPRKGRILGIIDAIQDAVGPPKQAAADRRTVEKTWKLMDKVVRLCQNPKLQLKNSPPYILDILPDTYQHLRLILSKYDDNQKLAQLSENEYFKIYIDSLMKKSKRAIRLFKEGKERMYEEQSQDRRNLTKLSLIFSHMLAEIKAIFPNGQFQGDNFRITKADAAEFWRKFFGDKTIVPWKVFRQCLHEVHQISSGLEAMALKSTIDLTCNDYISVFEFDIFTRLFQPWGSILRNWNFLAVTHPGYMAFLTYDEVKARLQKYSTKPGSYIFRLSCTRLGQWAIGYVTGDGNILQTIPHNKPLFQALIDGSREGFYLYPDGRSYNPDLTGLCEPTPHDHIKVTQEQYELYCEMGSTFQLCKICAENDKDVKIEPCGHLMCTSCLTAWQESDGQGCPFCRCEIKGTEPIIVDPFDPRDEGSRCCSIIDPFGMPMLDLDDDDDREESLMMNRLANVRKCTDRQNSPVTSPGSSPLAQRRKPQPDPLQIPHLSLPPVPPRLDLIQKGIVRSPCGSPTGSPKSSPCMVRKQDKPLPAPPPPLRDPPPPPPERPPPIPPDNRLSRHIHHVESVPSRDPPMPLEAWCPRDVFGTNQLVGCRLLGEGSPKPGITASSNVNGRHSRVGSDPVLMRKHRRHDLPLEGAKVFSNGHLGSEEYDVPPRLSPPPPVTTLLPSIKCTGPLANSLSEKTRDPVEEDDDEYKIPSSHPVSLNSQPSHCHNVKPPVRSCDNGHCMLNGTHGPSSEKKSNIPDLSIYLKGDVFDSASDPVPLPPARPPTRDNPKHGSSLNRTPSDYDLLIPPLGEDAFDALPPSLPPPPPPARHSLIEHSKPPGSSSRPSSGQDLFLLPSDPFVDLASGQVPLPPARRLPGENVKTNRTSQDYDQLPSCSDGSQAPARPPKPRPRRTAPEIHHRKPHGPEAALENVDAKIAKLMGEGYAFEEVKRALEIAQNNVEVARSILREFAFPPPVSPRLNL

| Structure (SMILES) | IC50 [3] [µM] | fold change (FC) [1] | fold change (FC) [2] | fold change (FC) [4] | fold change (FC) [5] | fold change (FC) [6] | fold change (FC) [7] |
| --- | --- | --- | --- | --- | --- | --- | --- |
| CCOc1cc(N2Cc3c(cc(CN4CC[C@H](F)C4)cc3C(F)(F)F)C2=O)cc(C2(Cc3nncn3C)COC2)c1 | < 0.1 | 5 | >=7.5 | >=0.201 | 1.31 | 1.31 | >=1.001 |
| Cn1cnnc1CC1(c2cccc(NC(=O)c3cc(CN4C[C@H]5C[C@H]5C4)cc(C4CC4)n3)c2)COC1 | < 0.1 | >=7.5 | >=7.5 | >=0.201 | 1.31 | 1.31 | >=1.001 |
| COC1CCN(Cc2cc3c(c(C(F)(F)F)c2)CN(c2cccc(C4(Cc5nncn5C)COC4)c2)C3=O)CC1 | < 0.1 | >=7.5 | >=7.5 | >=0.201 | 1.51 | 1.31 | >=1.001 |
| Cn1cnnc1CC1(c2cccc(N3Cc4c(cc(CN5CC[C@@H]6C[C@@H]65)cc4C(F)(F)F)C3=O)c2)COC1 | < 0.1 | >=7.5 | >=7.5 | >=0.201 | 1.51 | 1.51 | >=1.001 |
| Cc1cc(C(=O)Nc2cc(C3CC3)cc(C3(Cc4nncn4C)COC3)c2)nc(C2CC2)n1 | < 0.1 | 2.51 | >=7.5 | >=0.201 | 1.31 | 1.01 | >=1.001 |
| Cn1cnnc1CC1(c2cccc(N3Cc4c(cc(N5CC(C(F)(F)F)C5)cc4C(F)(F)F)C3=O)c2)COC1 | < 0.1 | 2.51 | >=7.5 | 0.051 | 1.01 | 1.01 | >=1.001 |
| Cn1cnnc1CC1(c2cccc(NC(=O)c3cc(C4CC4)nc4ccnn34)c2)COC1 | < 0.1 | 1.01 | 2.51 | <=0.05 | 1.01 | 1.01 | 0.601 |
| Cn1cnnc1[C@@H](F)C1(c2cccc(N3Cc4c(cc(CN5[C@H]6CC[C@H]5CC(F)C6)cc4C(F)(F)F)C3=O)c2)COC1 (some centres not stated) | < 0.1 | 2.51 | >=7.5 | >=0.201 | >=1.76 | >=1.76 | 0.801 |
| Cn1cnnc1CC1(c2cccc(N3Cc4c(cc(N5CCC(C(F)F)C5)cc4C(F)(F)F)C3=O)c2)COC1 (configuration not stated) | < 0.1 | 1.01 | 2.51 | <=0.05 | 1.01 | 1.01 | 0.601 |
| Cn1cnnc1CC1(c2cccc(N3Cc4c(cc(CN5CCOC(C6CCC6)C5)cc4C(F)(F)F)C3=O)c2)COC1 (configuration not stated) | < 0.1 | – | – | – | – | – | – |
| Cn1cnnc1CC1(c2cccc(N3Cc4c(cc(CN5CCN6C(=O)CCC6C5)cc4C(F)(F)F)C3=O)c2)COC1 (configuration not stated) | < 0.1 | – | – | – | – | – | – |
| Cn1cnnc1CC1(c2cccc(N3Cc4c(cc(CN5CCc6ncccc6C5)cc4C(F)(F)F)C3=O)c2)COC1 | < 0.1 | – | – | – | – | – | – |
| C[C@@H]1CN(Cc2cc3c(c(C(F)(F)F)c2)CN(c2cccc(C4(Cc5nncn5C)COC4)c2)C3=O)C[C@H](C)O1 | < 0.1 | – | – | – | – | – | – |
| C[C@@H]1CCN(Cc2cc3c(c(C(F)(F)F)c2)CN(c2cccc(C4(Cc5nncn5C)COC4)c2)C3=O)C[C@@H]1F | < 0.1 | – | – | – | – | – | – |
| Cn1cnnc1CC1(c2cccc(N3Cc4c(cc(CN5CCOC(C(F)F)C5)cc4C(F)(F)F)C3=O)c2)COC1 (configuration not stated) | < 0.1 | – | – | – | – | – | – |
| Cn1cnnc1CC1(c2cccc(N3Cc4c(cc(CC5CNCCC5=O)cc4C(F)(F)F)C3=O)c2)COC1 (configuration not stated) | < 0.1 | – | – | – | – | – | – |
| Cc1nnnn1CC(C)c1cccc(NC(=O)c2cccc(C(F)(F)F)n2)c1 (configuration not stated) | > 10 | – | – | – | – | – | – |
| Cn1cnnc1CC1(c2cccc(N3Cc4c(cc(CN5CCc6cnccc6C5)cc4C(F)(F)F)C3=O)c2)COC1 | < 0.1 | – | – | – | – | – | – |
| Cn1cnnc1CC1(c2cccc(N3Cc4c(cc(CN5CC[C@@H](F)[C@@H](F)C5)cc4C(F)(F)F)C3=O)c2)COC1 (relative stereo) | < 0.1 | – | – | – | – | – | – |
| Cn1cnnc1CC1(c2cccc(N3Cc4c(cc(CN5CCOC(CC(F)(F)F)C5)cc4C(F)(F)F)C3=O)c2)COC1 (configuration not stated) | < 0.1 | – | – | – | – | – | – |
| Cn1cnnc1CC1(c2cccc(N3Cc4c(cc(CN5CC6CC(C5)C6(F)F)cc4C(F)(F)F)C3=O)c2)COC1 | < 0.1 | – | – | – | – | – | – |
| Cn1cnnc1CC1(c2cccc(N3Cc4c(cc(CN5Cc6cccc(C#N)c6C5)cc4C(F)(F)F)C3=O)c2)COC1 | < 0.1 | – | – | – | – | – | – |
| CN(c1cc2c(c(C(F)(F)F)c1)CN(c1cccc([C@@](C)(F)C(F)(F)c3nncn3C)c1)C2=O)[C@@H]1CNC[C@H]1F | < 0.1 | – | – | – | – | – | – |
| CN(c1cc2c(c(C(F)(F)F)c1)CN(c1cccc([C@@](C)(F)C(F)(F)c3nncn3C)c1)C2=O)[C@H]1CNC[C@@H]1F | < 0.1 | – | – | – | – | – | – |
| Cn1cnnc1CC1(c2cccc(N3Cc4c(cc(CN5CCOC(CCO)C5)cc4C(F)(F)F)C3=O)c2)COC1 (configuration not stated) | < 0.1 | – | – | – | – | – | – |
| CC(C)C1CN(Cc2cc3c(c(C(F)(F)F)c2)CN(c2cccc(C4(Cc5nncn5C)COC4)c2)C3=O)CCO1 (configuration not stated) | < 0.1 | – | – | – | – | – | – |

Now from value to molecule, other results behind:

| IC50 [3] [µM] | Structure (SMILES) | fold change (FC) [1] | fold change (FC) [2] | fold change (FC) [4] | fold change (FC) [5] | fold change (FC) [6] | fold change (FC) [7] |
| --- | --- | --- | --- | --- | --- | --- | --- |
| < 0.1 | CCOC1CCCN(Cc2cc3c(c(C(F)(F)F)c2)CN(c2cccc(C4(Cc5nncn5C)COC4)c2)C3=O)C1 (configuration not stated) | >=7.5 | >=7.5 | >=0.201 | 1.51 | 1.51 | >=1.001 |
| < 0.1 | Cn1cnnc1[C@H](F)C1(c2cccc(N3Cc4c(cc(CN5CCCCC5)cc4C(F)(F)F)C3=O)c2)COC1 | >=7.5 | >=7.5 | >=0.201 | 1.01 | 1.01 | >=1.001 |
| < 0.1 | Cn1cnnc1C[C@]1(c2cccc(N3Cc4c(cc(CN5CCC6(CC6)C5)cc4C(F)(F)F)C3=O)c2)CCOC1 | >=7.5 | >=7.5 | >=0.201 | 1.01 | 1.01 | >=1.001 |
| < 0.1 | CN1CCN(c2cc3c(c(C(F)(F)F)c2)CN(c2cccc(C4(Cc5nncn5C)COC4)c2)C3=O)CC12CC2 | 2.51 | 5 | 0.151 | 1.51 | 1.31 | >=1.001 |
| < 0.1 | Cn1cnnc1CC1(c2cccc(N3Cc4c(cc(CN5CCC6CC6C5)cc4C(F)(F)F)C3=O)c2)COC1 (configuration not stated) | >=7.5 | >=7.5 | >=0.201 | 1.31 | 1.31 | >=1.001 |
| < 0.1 | C[C@H](c1cc2c(c(C(F)(F)F)c1)CN(c1cccc(C3(Cc4nncn4C)COC3)c1)C2=O)N1CC(F)C1 | 2.51 | 5 | 0.101 | 1.51 | 1.31 | >=1.001 |
| < 0.1 | CC(c1cc(C(=O)Nc2cccc(C3(Cc4nncn4C)COC3)c2)nc(C2CC2)n1)N1CCC2(CC2)C1 (single isomer, unassigned; 592b) | – | – | – | – | – | – |
| < 0.1 | Cn1cnnc1CC1(c2cccc(N3Cc4c(cc(CN5CCOC(CCF)C5)cc4C(F)(F)F)C3=O)c2)COC1 (configuration not stated) | – | – | – | – | – | – |
| < 0.1 | CC1=C(c2cc3c(c(C(F)(F)F)c2)CN(c2cccc(C4(Cc5nncn5C)COC4)c2)C3=O)CCO1 | – | – | – | – | – | – |
| > 10 | C[C@@H](Sc1nncn1C)c1ccc(F)c(N2Cc3c(cccc3C(F)(F)F)C2=O)c1 | – | – | – | – | – | – |
| < 0.1 | Cc1cc(C(=O)Nc2cccc(C3(Cc4[nH]ncc4C)COC3)c2)nc(C2CC2)n1 | – | – | – | – | – | – |
| < 0.1 | Cn1cnnc1CC1(c2cccc(N3Cc4c(cc(CN5CCc6cccnc6C5)cc4C(F)(F)F)C3=O)c2)COC1 | – | – | – | – | – | – |
| < 0.1 | Cn1cnnc1CC1(c2cccc(N3Cc4c(cc(C(O)C(F)(F)F)cc4C(F)(F)F)C3=O)c2)COC1 (configuration not stated) | – | – | – | – | – | – |
| < 0.1 | Cn1cnnc1CC1(c2cccc(N3Cc4c(cc(CN5CC[C@@H](c6ccccc6)C5)cc4C(F)(F)F)C3=O)c2)COC1 | – | – | – | – | – | – |
| < 0.1 | Cn1cnnc1CC1(c2cccc(N3Cc4c(cc(CN5Cc6cccc(Cl)c6C5)cc4C(F)(F)F)C3=O)c2)COC1 | – | – | – | – | – | – |
| > 10 | C[C@H](Sc1nncn1C)c1cccc(NC(=O)c2cccc(N(C)C)c2)c1 | – | – | – | – | – | – |
| < 0.1 | CN1CC[C@H](O)C(Cc2cc3c(c(C(F)(F)F)c2)CN(c2cccc(C4(Cc5nncn5C)COC4)c2)C3=O)C1 (single isomer, unassigned) | – | – | – | – | – | – |
| < 0.1 | Cn1cnnc1CC1(c2cccc(N3Cc4c(cc(C5CCCOC5)cc4C(F)(F)F)C3=O)c2)COC1 (configuration not stated) | – | – | – | – | – | – |
| < 0.1 | Cn1cnnc1CC1(c2cccc(N3Cc4c(cc(CN5Cc6ccc(Cl)cc6C5)cc4C(F)(F)F)C3=O)c2)COC1 | – | – | – | – | – | – |
| < 0.1 | Cn1cnnc1CC1(c2cccc(N3Cc4c(cc(CN5CCO[C@H](C(F)(F)F)C5)cc4C(F)(F)F)C3=O)c2)COC1 | – | – | – | – | – | – |
| < 0.1 | CC(c1cc2c(c(C(F)(F)F)c1)CN(c1cccc(C3(Cc4nncn4C)COC3)c1)C2=O)n1ccnc1 (configuration not stated) | – | – | – | – | – | – |
